# Data from patent US20260034130A1 (priority 2022, published 2026).
# Experiments:
# Assay type in all cases: in vivo, human
# [1] = system: patients with acute ischemic stroke or high-risk TIA; assay: AXIOMATIC-SSP primary efficacy: composite of new clinical ischemic stroke during treatment and new covert brain infarction detected by MRI on Day 90; conditions: modified ITT
# Protocol: The main objective is to determine the dose-response relationship of milvexian in participants with acute ischemic stroke or TIA who are treated with aspirin and clopidogrel. The main secondary objective is to assess the rate of major bleeding in this population compared with placebo.
# (§1) The primary efficacy endpoint was the composite of incident ischemic stroke during the treatment period or new covert brain infarction detected by the comparison of 90-day and baseline MRIs. All images were read independently by 2 blinded neuroradiologists, and disagreements were resolved by consensus. […] Clinically overt strokes were determined by site investigators following standardized definitions. Briefly, to qualify as an outcome event, a clinical diagnosis of stroke required a sustained increase in the NIHSS score of ≥3 points that was not explained by other factors, such as infection, or was confirmed by imaging as a new infarct. Covert brain infarction is defined as small ischemic cerebral lesions that are detected on Day 90 MRI in the absence of a symptomatic ischemic stroke event.
# All randomized participants will be included in the analysis of the primary endpoint if they have either a symptomatic ischemic stroke event by day 90 or an evaluable MRI at the day 90 visit. Because of the COVID-19 pandemic, all day 90 visit MRIs will be included in the primary analysis, regardless of timing. All other efficacy analyses will be performed on a randomized (intent-to-treat, ITT) population up to day 90.
# The population for the primary efficacy endpoint analysis include all randomized participants who have (i) a primary endpoint event (a new ischemic stroke during the study period or a new covert brain infarction detected by MRI on Day 90) or (ii) an evaluable MRI image on Day 90.
# The primary efficacy outcome was to assess dose response for the composite of new clinical ischemic stroke during treatment and new covert brain infarction detected by MRI on Day 90 in a modified ITT population (those participants with either a clinical ischemic stroke or a Day 90 MRI).
# [2] = system: patients with acute ischemic stroke or high-risk TIA; assay: AXIOMATIC-SSP clinical (symptomatic) ischemic stroke and undetermined stroke events, all randomized participants
# Protocol: as §1, with “event. […]” for “event.”
# [3] = system: patients with acute ischemic stroke or high-risk TIA; assay: AXIOMATIC-SSP composite of new ischemic stroke, MI and all-cause death; conditions: up to Day 90
# Description: Event rates of the composite of new ischemic non-fatal stroke, non-fatal myocardial infarction, or all-cause death.
# [4] = system: patients with acute ischemic stroke or high-risk TIA; assay: AXIOMATIC-SSP NIHSS at the time of first recurrent stroke; conditions: for NIHSS Change from Baseline Mean / NIHSS Change from Baseline Median / NIHSS Value Mean / NIHSS Value Median: first recurrent stroke
# Description: National Institutes of Health Stroke Scale (NIHSS), Modified Rankin Scale (mRS), Montreal Cognitive Assessment (MoCA), and Digit Symbol Substitution Test (subtest of WAIS-IV) were collected at baseline (at randomization for NIHSS), on Days 21 and 90, and at the time of a new stroke event. MoCA and DSST (subset of WAIS-IV) were read by a third-party central laboratory blinded to treatment.
# Descriptive statistics and corresponding change from baseline (where applicable) assessed by the National Institutes of Health Stroke Score (NIHSS), modified Rankin Scale (mRS), Montreal Cognitive Assessment (MoCA), and Digit Symbol Substitution Test (subtest of WAIS-IV) were summarized by treatment group.
# [5] = system: intrinsic coagulation pathway; assay: AXIOMATIC-SSP pharmacodynamics: activated partial thromboplastin time (aPTT) and percent change from baseline; conditions: for aPTT Percent Change from Baseline Mean / aPTT Percent Change from Baseline Median / aPTT Value Mean / aPTT Value Median: 50 mg BID
smiles,measurement,setting,value
"C[C@@H]1CCC[C@H](n2cnc(-c3cc(Cl)ccc3-n3cc(Cl)nn3)cc2=O)c2cc(ccn2)-c2c(cnn2C(F)F)NC1=O [milvexian, (5R,9S)-9-(4-(5-chloro-2-(4-chloro-1H-1,2,3-triazol-1-yl)phenyl)-6-oxopyrimidin-1(6H)-yl)-21-(difluoromethyl)-5-methyl-21H-3-aza-1(4,2)-pyridina-2(5,4)-pyrazolacyclonaphan-4-one]",incidence rate (n/N %) of composite of new clinical ischemic stroke and new covert brain infarction detected by MRI on Day 90,[1]; 25 mg once daily,16.2%
same,incidence rate (n/N %) of composite of new clinical ischemic stroke and new covert brain infarction detected by MRI on Day 90,[1]; 25 mg twice daily,18.5%
same,incidence rate (n/N %) of composite of new clinical ischemic stroke and new covert brain infarction detected by MRI on Day 90,[1]; 50 mg twice daily,14.1%
same,incidence rate (n/N %) of composite of new clinical ischemic stroke and new covert brain infarction detected by MRI on Day 90,[1]; 100 mg twice daily,14.7%
same,incidence rate (n/N %) of composite of new clinical ischemic stroke and new covert brain infarction detected by MRI on Day 90,[1]; 200 mg twice daily,16.4%
same,Subjects With Hemorragic Stroke n,"[2]; 25 mg BID, N = 318",0
same,"Subjects With Hemorragic Stroke, Incidence Rate (n/N %)","[2]; 25 mg BID, N = 318",(0) %
same,"Subjects With Undetermined Stroke, Incidence Rate (n/N %)","[2]; 25 mg BID, N = 318",(0) %
same,"Symptomatic Stroke Events: Subjects With Event, Incidence Rate (n/N %)","[2]; 25 mg BID, N = 318",(3.8) %
same,Subjects With Hemorragic Stroke n,"[2]; 25 mg QD, N = 328",0
same,"Subjects With Hemorragic Stroke, Incidence Rate (n/N %)","[2]; 25 mg QD, N = 328",(0) %
same,Subjects With Ischemic Stroke n,"[2]; 25 mg QD, N = 328",15
same,"Subjects With Undetermined Stroke, Incidence Rate (n/N %)","[2]; 25 mg QD, N = 328",(0) %
same,Symptomatic Stroke Events: Subjects With Event n,"[2]; 25 mg QD, N = 328",15
same,"Symptomatic Stroke Events: Subjects With Event, Incidence Rate (n/N %)","[2]; 25 mg QD, N = 328",(4.6) %
same,HR for preventing clinical ischemic strokes vs placebo,"[2]; 25 mg twice daily, 95% CI 0.36-1.30",0.69
same,Subjects With Hemorragic Stroke n,"[2]; 50 mg BID, N = 328",0
same,"Subjects With Hemorragic Stroke, Incidence Rate (n/N %)","[2]; 50 mg BID, N = 328",(0) %
same,"Subjects With Undetermined Stroke, Incidence Rate (n/N %)","[2]; 50 mg BID, N = 328",(0) %
same,"Symptomatic Stroke Events: Subjects With Event, Incidence Rate (n/N %)","[2]; 50 mg BID, N = 328",(4.0) %
same,Subjects With Hemorragic Stroke n,"[2]; 100 mg BID, N = 310",0
same,"Subjects With Hemorragic Stroke, Incidence Rate (n/N %)","[2]; 100 mg BID, N = 310",(0) %
same,"Subjects With Undetermined Stroke, Incidence Rate (n/N %)","[2]; 100 mg BID, N = 310",(0) %
same,"Symptomatic Stroke Events: Subjects With Event, Incidence Rate (n/N %)","[2]; 100 mg BID, N = 310",(3.5) %
same,Subjects With Hemorragic Stroke n,"[2]; 200 mg BID, N = 351",0
same,"Subjects With Hemorragic Stroke, Incidence Rate (n/N %)","[2]; 200 mg BID, N = 351",(0) %
same,"Subjects With Undetermined Stroke, Incidence Rate (n/N %)","[2]; 200 mg BID, N = 351",(0) %
same,"Symptomatic Stroke Events: Subjects With Event, Incidence Rate (n/N %)","[2]; 200 mg BID, N = 351",(7.7) %
same,"time point for apparent onset of the clinical benefit vs placebo (Kaplan-Meier, time to ischemic stroke)",[2]; pooled doses of milvexian,about 10 days
same,All Cause Death (%),"[3]; 25 mg BID, N = 318",(0.9) %
same,"All Cause Death, subjects n","[3]; 25 mg BID, N = 318",3
same,Myocardial Infarction (%),"[3]; 25 mg BID, N = 318",(0.6) %
same,"Myocardial Infarction, subjects n","[3]; 25 mg BID, N = 318",2
same,"New Ischemic Stroke, MI And All Cause Death: Subjects With Event (%)","[3]; 25 mg BID, N = 318",(4.7) %
same,All Cause Death (%),"[3]; 25 mg QD, N = 328",(0.9) %
same,"All Cause Death, subjects n","[3]; 25 mg QD, N = 328",3
same,Myocardial Infarction (%),"[3]; 25 mg QD, N = 328",(0.3) %
same,"Myocardial Infarction, subjects n","[3]; 25 mg QD, N = 328",1
same,"New Ischemic Stroke, MI And All Cause Death: Subjects With Event (%)","[3]; 25 mg QD, N = 328",(5.2) %
same,All Cause Death (%),"[3]; 50 mg BID, N = 328",(0.6) %
same,"All Cause Death, subjects n","[3]; 50 mg BID, N = 328",2
same,Myocardial Infarction (%),"[3]; 50 mg BID, N = 328",(0.3) %
same,"Myocardial Infarction, subjects n","[3]; 50 mg BID, N = 328",1
same,"New Ischemic Stroke, MI And All Cause Death: Subjects With Event (%)","[3]; 50 mg BID, N = 328",(4.9) %
same,All Cause Death (%),"[3]; 100 mg BID, N = 310",(1.6) %
same,"All Cause Death, subjects n","[3]; 100 mg BID, N = 310",5
same,Myocardial Infarction (%),"[3]; 100 mg BID, N = 310",(0.6) %
same,"Myocardial Infarction, subjects n","[3]; 100 mg BID, N = 310",2
same,"New Ischemic Stroke, MI And All Cause Death: Subjects With Event (%)","[3]; 100 mg BID, N = 310",(5.2) %
same,"All Cause Death, subjects n","[3]; 200 mg BID, N = 351",4
same,"Myocardial Infarction, subjects n","[3]; 200 mg BID, N = 351",3
same,NIHSS Change from Baseline Mean,"[4]; 25 BID, N 11",2.6
same,NIHSS Change from Baseline Median,"[4]; 25 BID, N 11",3.0
same,NIHSS Value Mean,"[4]; 25 BID, N 11",5.4
same,NIHSS Value Median,"[4]; 25 BID, N 11",5.0
same,NIHSS Change from Baseline Mean,"[4]; 25 QD, N 14",2.6
same,NIHSS Change from Baseline Median,"[4]; 25 QD, N 14",2.0
same,NIHSS Value Mean,"[4]; 25 QD, N 14",4.6
same,NIHSS Value Median,"[4]; 25 QD, N 14",3.5
same,NIHSS Change from Baseline Mean,"[4]; 50 BID, N 11",1.6
same,NIHSS Change from Baseline Median,"[4]; 50 BID, N 11",1.0
same,NIHSS Value Mean,"[4]; 50 BID, N 11",4.6
same,NIHSS Value Median,"[4]; 50 BID, N 11",3.0
same,NIHSS Change from Baseline Mean,"[4]; 100 BID, N 10",5.2
same,NIHSS Change from Baseline Median,"[4]; 100 BID, N 10",2.5
same,NIHSS Value Mean,"[4]; 100 BID, N 10",7.1
same,NIHSS Value Median,"[4]; 100 BID, N 10",6.5
same,NIHSS Change from Baseline Mean,"[4]; 200 BID, N 20",2.8
same,NIHSS Change from Baseline Median,"[4]; 200 BID, N 20",1.0
same,NIHSS Value Mean,"[4]; 200 BID, N 20",4.4
same,NIHSS Value Median,"[4]; 200 BID, N 20",2.5
same,NIHSS score at the time of a new stroke event compared with placebo,[4]; milvexian arms,numerically lower
same,aPTT Percent Change from Baseline Mean,"[5]; DAY 1 24 h, N 269",85.17%
same,aPTT Percent Change from Baseline Median,"[5]; DAY 1 24 h, N 269",81.89%
same,aPTT Value Mean,"[5]; DAY 1 24 h, N 269",49.38 s
same,aPTT Value Median,"[5]; DAY 1 24 h, N 269",48.60 s
same,aPTT Percent Change from Baseline Mean,"[5]; DAY 21 anytime, N 268",115.62%
same,aPTT Percent Change from Baseline Median,"[5]; DAY 21 anytime, N 268",112.6%
same,aPTT Value Mean,"[5]; DAY 21 anytime, N 268",57.27 s
same,aPTT Value Median,"[5]; DAY 21 anytime, N 268",55.10 s
same,aPTT Percent Change from Baseline Mean,"[5]; DAY 90 anytime, N 241",97.32%
same,aPTT Percent Change from Baseline Median,"[5]; DAY 90 anytime, N 241",101.18%
same,aPTT Value Mean,"[5]; DAY 90 anytime, N 241",52.00 s
same,aPTT Value Median,"[5]; DAY 90 anytime, N 241",52.60 s
same,change in aPTT from baseline,[5]; milvexian treated groups,Dose-dependent increases
